{"source": "ChEMBL document CHEMBL4219049", "about": "“Peptide therapeutics for the treatment of gastrointestinal disorders” (Bioorg Med Chem, 2018)", "key": {"Homo sapiens [1]": {"species": "Homo sapiens", "test": "Increase in complete spontaneous bowel movements in patient with chronic idiopathic constipation at 6 mg for 12 weeks (reference value: 10.2%)", "type": "functional"}, "Homo sapiens [2]": {"species": "Homo sapiens", "test": "Toxicity in patient with chronic idiopathic constipation assessed as induction of diarrhea at 6 mg for 12 weeks (reference value: 1.3%)", "type": "organism-based", "conditions": "in vivo, 2016 h"}, "Homo sapiens [3]": {"species": "Homo sapiens", "test": "Toxicity in patient with chronic idiopathic constipation assessed as induction of diarrhea at 3 mg for 12 weeks (reference value: 1.3%)", "type": "organism-based", "conditions": "in vivo, 2016 h"}, "Homo sapiens [4]": {"species": "Homo sapiens", "test": "Increase in complete spontaneous bowel movements in patient with chronic idiopathic constipation at 3 mg for 12 weeks (reference value: 10.2%)", "type": "functional"}, "Homo sapiens [5]": {"species": "Homo sapiens", "test": "Reduction in worst abdominal pain in patient with irritable bowel syndrome with constipation after 26 weeks (reference value: 25%)", "type": "functional", "design": "scale not given: the % may be the effect or the level left"}, "Homo sapiens [6]": {"species": "Homo sapiens", "test": "Toxicity in patient with irritable bowel syndrome with constipation assessed as induction of diarrhea after 26 weeks (reference value: 2.5%)", "type": "organism-based", "conditions": "in vivo, 4368 h"}, "[7]": {"test": "Elimination half-life in human plasma at 0.8 pmol/kg.min, iv", "type": "ADME, cell-free", "conditions": "read-out: beta t1/2"}}, "note": "Bridge positions count the residues as written; N and C are the ends. Peptide text beside a SMILES is read from it."}
{"smiles": "CC(C)C[C@H](NC(=O)[C@@H]1CSSC[C@@H]2NC(=O)[C@H](CC(C)C)NC(=O)[C@H](CCC(=O)O)NC(=O)[C@@H](NC(=O)[C@H](CCC(=O)O)NC(=O)[C@H](CC(=O)O)NC(=O)[C@@H](N)CC(N)=O)CSSC[C@H](NC(=O)[C@H](C)NC(=O)[C@H](C(C)C)NC(=O)[C@H](CC(N)=O)NC(=O)[C@H](C(C)C)NC2=O)C(=O)N[C@@H]([C@@H](C)O)C(=O)NCC(=O)N1)C(=O)O", "note": "[PLECANATIDE]", "values": [{"measurement": "Activity", "setting": "Homo sapiens [1]", "result": 19.5, "unit": "%"}, {"measurement": "Activity", "setting": "Homo sapiens [2]", "result": 5.7, "unit": "%"}, {"measurement": "Activity", "setting": "Homo sapiens [3]", "result": 5.9, "unit": "%"}, {"measurement": "Activity", "setting": "Homo sapiens [4]", "result": 21, "unit": "%"}]}
{"smiles": "C[C@@H]1NC(=O)[C@@H]2CCCN2C(=O)[C@H](CC(N)=O)NC(=O)[C@@H]2CSSC[C@H](N)C(=O)N[C@H]3CSSC[C@H](NC1=O)C(=O)N[C@@H]([C@@H](C)O)C(=O)NCC(=O)N[C@H](C(=O)N[C@@H](Cc1ccc(O)cc1)C(=O)O)CSSC[C@H](NC(=O)[C@H](Cc1ccc(O)cc1)NC(=O)[C@H](CCC(=O)O)NC3=O)C(=O)N2", "note": "[LINACLOTIDE] (H-CCEYCCNPACTGCY-OH; disulfide 1-6, 2-10, 5-13)", "values": [{"measurement": "Activity", "setting": "Homo sapiens [5]", "result": 47, "unit": "%"}, {"measurement": "Activity", "setting": "Homo sapiens [6]", "result": 19.7, "unit": "%"}]}
{"smiles": "CC[C@H](C)[C@H](NC(=O)[C@H](Cc1ccccc1)NC(=O)[C@H](CC(=O)O)NC(=O)[C@H](CCCN=C(N)N)NC(=O)[C@H](C)NC(=O)[C@H](C)NC(=O)[C@H](CC(C)C)NC(=O)[C@H](CC(N)=O)NC(=O)[C@H](CC(=O)O)NC(=O)[C@H](CC(C)C)NC(=O)[C@@H](NC(=O)[C@@H](NC(=O)[C@H](CC(N)=O)NC(=O)[C@H](CCSC)NC(=O)[C@H](CCC(=O)O)NC(=O)[C@H](CC(=O)O)NC(=O)[C@H](CO)NC(=O)[C@H](Cc1ccccc1)NC(=O)[C@H](CO)NC(=O)CNC(=O)[C@H](CC(=O)O)NC(=O)[C@H](C)NC(=O)[C@@H](N)Cc1cnc[nH]1)[C@@H](C)O)[C@@H](C)CC)C(=O)N[C@@H](CC(N)=O)C(=O)N[C@@H](Cc1c[nH]c2ccccc12)C(=O)N[C@@H](CC(C)C)C(=O)N[C@H](C(=O)N[C@@H](CCC(N)=O)C(=O)N[C@H](C(=O)N[C@@H](CCCCN)C(=O)N[C@H](C(=O)N[C@H](C(=O)N[C@@H](CC(=O)O)C(=O)O)[C@@H](C)O)[C@@H](C)CC)[C@@H](C)O)[C@@H](C)CC", "values": [{"measurement": "half-life", "setting": "[7]", "result": 7.2, "unit": "min"}]}
